tested on: VEEV TrD infected cells, CPE inhibition; assay: CPE inhibition in VEEV TrD infected cells, confirmatory dose response (AID 602484)

`CN1CCN(Cc2nc3ccc([N+](=O)[O-])cc3c(=O)n2-c2ccccc2F)CC1` and `CCN1CCN(Cc2nc3ccc([N+](=O)[O-])cc3c(=O)n2-c2ccccc2F)CC1` are within 1.5-fold of each other in IC50: 270 nM for the first, 370 nM for the second.

For `CN(C(=O)Cc1cccs1)c1nc2c(s1)CCCC2`, the IC50 was 2030 nM.

— PubChem BioAssay AID602484 (Southern Research Specialized Biocontainment Screening …, 2012)
